{"source": "paper PMC6657668", "about": "“Porcine Beta-Defensin 2 Provides Protection Against Bacterial Infection by a Direct Bactericidal Activity and Alleviates Inflammation via Interference With the TLR4/NF-κB Pathway” (Frontiers in Immunology, 2019)", "molecules": {"B1": {"name": "Porcine beta-defensin 2 (PBD-2), synthetic mature peptide (peptide)", "peptide": "DHYICAKKGGTCNFSPCPLFNRIEGTCYSGKAKCCIR", "modifications": "ends and bridges not checked; cysteine pairing not given here", "notes": "mature peptide of porcine beta-defensin 2 (PBD-2), pig; also called synthetic PBD-2; source: synthetic peptide (Neweast Biosciences, # 60001)"}}, "key": {"[1]": {"conditions": "cited from earlier work", "excerpt": "(§1) The antibiotic resistance of pathogenic bacteria has become a global threat ([30]). Defensins are natural peptides secreted by many species and implicated in resisting bacterial infection ([31]). PBD-2 is one of the defensins expressed in pigs. […] The invasion of S. Typhimurium can increase the expression of PBD-2 in porcine epithelial cells ([32]). […] PBD-2 also improves the growth perf ..."}, "[2]": {"tested_on": "intestinal epithelial cells", "conditions": "cells transfected with genes encoding hBD-2 and hBD-3, infected with S. Typhimurium; vs untransfected; ref [44]; cited from earlier work", "excerpt": "The colitis caused by S. Typhimurium mainly results from intestinal mucosal inflammation after the breakage of intestinal epithelial barrier by pathogens ([26])."}, "[3]": {"tested_on": "RAW 264.7 cells", "experiment": "Cytokine levels of RAW 264.7 cells after treatment with LPS (ELISA), with or without pathway inhibitor", "format": "cell-based, mouse", "conditions": "1 h pre-treatment, LPS 1 μg/ml, 16 h, n = 6", "method": "RAW 264.7 cells and RAW 264.7 cells stably expressing PBD-2 were pre-treated with S. Typhimurium at MOI = 10:1 for 1 h or with LPS (1 μg/ml) for 16 h, washed with PBS twice and incubated with RPMI 1640 that contained PBS or PBD-2 (10 μg/mL) for 16 h. RAW 264.7 cells stably expressing PBD-2 were maintained in RPMI 1640 that contained PBS for 16 h (n = 6 for each group). The expression levels of proinflammatory cytokines in the cell culture supernatant were determined through ELISA in accordance with the manufacturer's instruction.\nIn the inhibition assay, RAW 264.7 cells were pre-treated with 4 μg/ml NF-κB inhibitor (Celastrol, # ant-cls, InvivoGen®, San Diego, CA, USA) or 1 μg/ml TLR4 inhibitor (CLI-095, # tlrl-cli95, InvivoGen®, San Diego, CA, USA) for 1 h. Subsequently, RAW 264.7 cells were treated with LPS (1 μg/ml) alone or together with PBD-2 (10 μg/mL) for 16 h (n = 6 each group). RAW 264.7 cells treated with PBS were used as control. The levels of the cytokines in the supernatant of the cells were detected through ELISA."}, "[4]": {"tested_on": "release of inflammatory cytokines", "conditions": "cited from earlier work", "excerpt": "Bacterial drug resistance has become a global concern. Endeavors in search for antibiotic substitutes are desperately needed. Antimicrobial peptides (AMPs) are natural anti-infective agents identified in various species and implicated in innate immunity ([1]). […] AMPs not only have a direct bactericidal activity but also regulate immune and inflammatory responses ([3]). As bactericides, cationic AMPs exert bactericidal act ... || The colitis caused by S. Typhimurium mainly results from intestinal mucosal inflammation after the breakage of intestinal epithelial barrier by pathogens ([26])."}, "[5]": {"conditions": "cited from earlier work", "excerpt": "(§2) The mechanism of how AMPs modulate immune signaling pathways has yet to be fully understood. […] Instead, it interacted with TLR4. […] Therefore, th ...", "remark": "listed apart in the source"}, "[6]": {"tested_on": "TLR1", "conditions": "ref [50]; cited from earlier work", "excerpt": "as §2"}, "[7]": {"tested_on": "TLR2", "conditions": "ref [50]; cited from earlier work", "excerpt": "as §2"}, "[8]": {"tested_on": "signaling pathways downstream of TLR4", "conditions": "MyD88-dependent and MyD88-independent pathways; ref [50]; cited from earlier work", "excerpt": "as §2"}, "[9]": {"tested_on": "Bordetella pertussis", "conditions": "pigs; ref [35]; cited from earlier work", "excerpt": "as §1"}, "[10]": {"tested_on": "NF-κB", "experiment": "NF-κB promoter activity, luciferase reporter assay in RAW 264.7 cells", "format": "cell-based, mouse", "conditions": "CLI-095 1 μg/ml, 1 h pre-treatment; LPS 1 μg/ml, 24 h; n = 6", "method": "A luciferase reporter assay was used to detect the promoter activity of NF-κB. RAW 264.7 cells were seeded in a 24-well plate for 24 h and then cotransfected with 800 ng/well of the NF-κB reporter plasmid (pGL3-Basic) and 20 ng/well of pLR-TK. WT […] luciferase (Rluc) served as the reporter gene control vector. […] In the inhibition assay, the cells were pre-treated with 1 μg/ml TLR4 inhibitor for 1 h and treated with LPS (1 μg/ml) alone or together with PBD-2 (10 μg/mL) for 24 h (n = 6 each group). Luciferase units were detected to show the promoter activity of NF-κB ([28])."}, "[11]": {"tested_on": "TLR3", "conditions": "TLR3 ligand poly (I:C); ref [6]; cited from earlier work", "excerpt": "as §2"}, "[12]": {"biological_target": "T1, TLR4, purified recombinant protein (Cloud-clone # RPA753Mu01) (UniProt Q9QUK6 26-638)", "T1 construct": "Toll-like receptor 4 (TLR4), bought recombinant protein; the vendor's data sheet is needed; also called purified TLR4; source: bought: Cloud-clone (# RPA753Mu01)", "T1 sequence (looked up)": "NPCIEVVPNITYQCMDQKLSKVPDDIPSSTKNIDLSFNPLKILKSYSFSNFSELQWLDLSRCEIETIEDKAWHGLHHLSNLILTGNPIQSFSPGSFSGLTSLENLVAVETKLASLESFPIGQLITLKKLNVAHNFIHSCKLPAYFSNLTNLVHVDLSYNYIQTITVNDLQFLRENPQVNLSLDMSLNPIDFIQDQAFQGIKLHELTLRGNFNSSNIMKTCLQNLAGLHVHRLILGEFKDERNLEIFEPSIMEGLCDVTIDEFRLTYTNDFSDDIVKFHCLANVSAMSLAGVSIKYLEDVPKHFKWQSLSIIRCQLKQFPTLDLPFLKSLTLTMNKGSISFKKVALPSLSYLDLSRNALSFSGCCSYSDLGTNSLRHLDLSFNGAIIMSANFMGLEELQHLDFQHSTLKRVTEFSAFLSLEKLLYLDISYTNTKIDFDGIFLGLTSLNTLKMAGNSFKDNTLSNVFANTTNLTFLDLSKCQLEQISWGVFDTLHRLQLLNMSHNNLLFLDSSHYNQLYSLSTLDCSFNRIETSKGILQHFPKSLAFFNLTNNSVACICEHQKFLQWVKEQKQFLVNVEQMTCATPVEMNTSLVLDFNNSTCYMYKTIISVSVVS", "experiment": "ITC; Nano-ITC, 25°C; PBD-2 in the syringe (0.215 mM), TLR4 in the calorimeter cell (0.016 to 0.050 mM); control: PBD-2 into PBS", "conditions": "both partners purified"}}, "note": "Like-named read-outs stand apart in the source and are kept apart here. Where no end group is shown, it is not given here."}
{"molecule": "hBD-2: β-defensin of human (GIGDPVTCLKSGAICHPVFCPRRYKQIGTCGLPGTKCCKKP; ends and bridges not checked; cysteine pairing not given here; UniProt O15263 24-64, looked up)", "values": [{"measurement": "antibacterial effects in vivo", "setting": "[1]; ref [36]", "value": "have antibacterial effects in vivo"}, {"measurement": "expression level of proinflammatory cytokines", "setting": "[2]", "value": "decreased expression level of proinflammatory cytokines"}]}
{"molecule": "CC1=C(O)C(=O)C=C2C1=CC=C1[C@@]2(C)CC[C@@]2(C)[C@@H]3C[C@](C)(C(=O)O)CC[C@]3(C)CC[C@]12C", "note": "[NF-κB inhibitor, Celastrol, reference compound]", "values": [{"measurement": "secretion of IL-1β triggered by LPS", "setting": "[3]; Celastrol 4 μg/ml", "value": "significantly reduced the secretion of TNF-α, IL-6, and IL-1β triggered by LPS"}, {"measurement": "secretion of IL-6 triggered by LPS", "setting": "[3]; Celastrol 4 μg/ml", "value": "significantly reduced the secretion of TNF-α, IL-6, and IL-1β triggered by LPS"}, {"measurement": "secretion of TNF-α triggered by LPS", "setting": "[3]; Celastrol 4 μg/ml", "value": "significantly reduced the secretion of TNF-α, IL-6, and IL-1β triggered by LPS"}]}
{"molecule": "hBD3: human β-defensin 3 (GIINTLQKYYCRVRGGRCAVLSCLPKEEQIGKCSTRGRKCCRRKK; ends and bridges not checked; cysteine pairing not given here; UniProt P81534 23-67, looked up)", "values": [{"measurement": "suppression of inflammation", "setting": "[4]; ref [7]", "value": "can suppress inflammation by inhibiting specific inflammatory signaling pathways"}, {"measurement": "TNF-α and IL-6 secretion", "setting": "[4]; ref [43]", "value": "suppressing TNF-α and IL-6 secretion"}, {"measurement": "expression level of proinflammatory cytokines", "setting": "[2]", "value": "decreased expression level of proinflammatory cytokines"}, {"measurement": "binding to LPS", "setting": "[5]; ref [50]", "value": "does not bind to LPS"}, {"measurement": "interaction with TLR1", "setting": "[6]", "value": "can interact with TLR1 and TLR2, leading to the activation of the MyD88-dependent pathway"}, {"measurement": "interaction with TLR2", "setting": "[7]", "value": "can interact with TLR1 and TLR2, leading to the activation of the MyD88-dependent pathway"}, {"measurement": "LPS-induced inflammation", "setting": "[8]", "value": "could inhibit the LPS-induced inflammation by repressing the signaling pathways downstream of TLR4"}]}
{"molecule": "Porcine beta-defensin 1: another defensin from pigs and homolog of human beta-defensin 2 (NIGNSVSCLRNKGVCMPGKCAPKMKQIGTCGMPQVKCCKRK; ends and bridges not checked; cysteine pairing not given here; UniProt O62697 24-64, looked up)", "values": [{"measurement": "protection against Bordetella pertussis infection", "setting": "[9]", "value": "protects against Bordetella pertussis infection in pigs"}]}
{"molecule": "PR39", "values": [{"measurement": "anti-endotoxin ability", "setting": "[5]; ref [49]", "value": "exert anti-endotoxin abilities by either disrupting LPS or inhibiting the LPS-induced production of TNF-α"}]}
{"molecule": "CCOC(=O)C1=CCCC[C@H]1S(=O)(=O)Nc1ccc(F)cc1Cl", "note": "[TLR4 inhibitor, reference compound]", "values": [{"measurement": "secretion of IL-1β triggered by LPS", "setting": "[3]; CLI-095 1 μg/ml", "value": "significantly reduced the secretion of TNF-α, IL-6, and IL-1β triggered by LPS"}, {"measurement": "secretion of IL-6 triggered by LPS", "setting": "[3]; CLI-095 1 μg/ml", "value": "significantly reduced the secretion of TNF-α, IL-6, and IL-1β triggered by LPS"}, {"measurement": "secretion of TNF-α triggered by LPS", "setting": "[3]; CLI-095 1 μg/ml", "value": "significantly reduced the secretion of TNF-α, IL-6, and IL-1β triggered by LPS"}, {"measurement": "LPS-induced NF-κB promoter activity, TLR4 inhibitor", "setting": "[10]", "value": "inhibited the LPS-induced promoter activity of NF-κB in RAW 264.7"}]}
{"molecule": "hBD-1: β-defensin of human (DHYNCVSSGGQCLYSACPIFTKIQGTCYRGKAKCCK; ends and bridges not checked; cysteine pairing not given here; UniProt P60022 33-68, looked up)", "values": [{"measurement": "antibacterial effects in vivo", "setting": "[1]; ref [36]", "value": "have antibacterial effects in vivo"}]}
{"molecule": "rMBD3: β-defensin 3 (rMBD3) of mice (KKINNPVSCLRKGGRCWNRCIGNTRQIGSCGVPFLKCCKRK; ends and bridges not checked; cysteine pairing not given here; UniProt Q9WTL0 23-63, looked up)", "values": [{"measurement": "antibacterial effects in vivo", "setting": "[1]; mice, ref [37]", "value": "have antibacterial effects in vivo"}]}
{"molecule": "LL-37: human AMP (LLGDFFRKSKEKIGKEFKRIVQRIKDFLRNLVPRTES; Antibacterial peptide LL-37; UniProt P49913 134-170, looked up)", "values": [{"measurement": "release of inflammatory cytokines", "setting": "[4]; ref [5]", "value": "suppress the release of inflammatory cytokines"}, {"measurement": "suppression of inflammation", "setting": "[4]; ref [6]", "value": "can suppress inflammation by inhibiting specific inflammatory signaling pathways"}, {"measurement": "anti-endotoxin ability", "setting": "[5]; ref [48]", "value": "exert anti-endotoxin abilities by either disrupting LPS or inhibiting the LPS-induced production of TNF-α"}, {"measurement": "TLR3-dependent immune responses", "setting": "[11]", "value": "TLR3-dependent immune responses are blocked by LL-37"}]}
{"molecule": "B1", "values": [{"measurement": "Kd", "setting": "[12]", "value": 3.75, "unit": "µM"}]}
